Data as given in patent US11505548B2, “Heterocyclic compounds and their use for treatment of helminthic infections and diseases” (Celgene Corporation, priority 2019, dated 2022).

Tested on: Onchocerca gutturosa Adult Male Worms
Assay: Onchocerciasis in vitro screening model, worm motility score
Type: cell-based
Settings: Onchocerca gutturosa; Table 1 O. gutturosa; levels A/B/C; motility or MTT readout not specified; read-out: O. gutturosa activity level (IC50 or MED)

| Compound | IC50 [nM] |
| --- | --- |
| COc1cnc(-c2nsc(Nc3ncccc3C)n2)cn1 [Compound 125, 3-(5-methoxy-pyrazin-2-yl)-N-(3-methyl-pyridin-2-yl)-1,2,4-thiadiazol-5-amine] | 500 to 5000 |
| CC(C)Oc1cnc(-c2nsc(Nc3ncccc3N(C)C)n2)cn1 [Compound 126, N2-(3-(5-iso-propoxypyrazin-2-yl)-1,2,4-thiadiazol-5-yl)-N3,N3-dimethylpyridine-2,3-diamine] | 500 to 5000 |
| CC(C)c1cccnc1Nc1nc(-c2ccc(OC(F)F)cn2)ns1 [Compound 127, 3-(5-(difluoro-methoxy)pyridin-2-yl)-N-(3-isopropyl-pyridin-2-yl)-1,2,4-thiadiazol-5-amine] | < 200 |
| CC(C)c1cccnc1Nc1nc(-c2ccc(F)cn2)ns1 [Compound 128, 3-(5-fluoro-pyridin-2-yl)-N-(3-isopropyl-pyridin-2-yl)-1,2,4-thiadiazol-5-amine] | 500 to 5000 |
| COc1cccnc1Nc1nc(-c2ccc(OC3CCN(C4CC4)CC3(F)F)cn2)ns1 (stereo not shown) [Compound 129, 3-(5-(1-cyclopropyl-3,3-difluoro-piperidin-4-yloxy)pyridin-2-yl)-N-(3-methoxypyridin-2-yl)-1,2,4-thiadiazol-5-amine] | 500 to 5000 |
| CC(C)Oc1ccc(-c2nsc(N(C)c3ncccc3C(C)C)n2)nc1 [Compound 130, 3-(5-isopropoxy-pyridin-2-yl)-N-(3-isopropy-lpyridin-2-yl)-N-methyl-1,2,4-thiadiazol-5-amine] | 500 to 5000 |
| CCN(c1nc(-c2ccc(OC(C)C)cn2)ns1)c1ncccc1C [Compound 131, N-ethyl-3-(5-isopropoxy-pyridin-2-yl)-N-(3-methyl-pyridin-2-yl)-1,2,4-thiadiazol-5-amine] | < 200 |
| CC(C)Oc1ccc(-c2nnc(Nc3ncccc3N(C)C)o2)nc1 [Compound 132, N2-(5-(5-isopropoxy-pyridin-2-yl)-1,3,4-oxadiazol-2-yl)-N3,N3-dimethyl-pyridine-2,3-diamine] | < 200 |
| CC(C)Oc1ccc(-c2noc(Nc3ncccc3N(C)C)n2)nc1 [Compound 133, N2-(3-(5-is-opropoxy-pyridin-2-yl)-1,2,4-oxadiazol-5-yl)-N3,N3-dimethyl-pyridine-2,3-diamine] | 500 to 5000 |
| COc1cccnc1Nc1nc(-c2cc(C(F)(F)F)c(OC3CC3)cn2)ns1 [Compound 134, 3-(5-cyclo-propoxy-4-(trifluoromethyl)pyridin-2-yl)-N-(3-methoxy-pyridin-2-yl)-1,2,4-thiadiazol-5-amine] | 500 to 5000 |
| Cc1nccnc1Nc1nc(-c2ccc(OC(C)C)cn2)ns1 [Compound 135, 3-(5-isoprop-oxypyridin-2-yl)-N-(3-methyl-pyrazin-2-yl)-1,2,4-thia-diazol-5-amine] | < 200 |
| CN(C)c1cccnc1Nc1nc(-c2ccc(OC3CC(F)(F)C3)cn2)ns1 [Compound 136, N2-(3-(5-(3,3-difluorocyclo-butoxy)pyridin-2-yl)-1,2,4-thiadiazol-5-yl)-N3,N3-dimethyl-pyridine-2,3-diamine] | 500 to 5000 |
| COc1cccnc1Nc1nc(-c2ccc(OC3CC(F)(F)C3)cn2)ns1 [Compound 137, 3-(5-(3,3-difluorocyclo-butoxy)pyridin-2-yl)-N-(3-methoxypyridin-2-yl)-1,2,4-thiadiazol-5-amine] | 500 to 5000 |
| Cc1cccnc1N(c1nc(-c2ccc(OC(C)C)cn2)ns1)C(C)C [Compound 138, 3-(5-isoprop-oxypyridin-2-yl)-N-isopropyl-N-(3-methylpyridin-2-yl)-1,2,4-thiadiazol-5-amine] | 500 to 5000 |
| CC(C)Oc1ccc(-c2nsc(N(C)c3ncccc3N(C)C)n2)nc1 [Compound 139, N2-(3-(5-isoprop-oxypyridin-2-yl)-1,2,4-thiadiazol-5-yl)-N2,N3,N3-trimethylpyridine-2,3-diamine] | 500 to 5000 |
| CC(C)Oc1ccc(-c2n[nH]c(Nc3ncccc3N(C)C)n2)nc1 [Compound 140, N2-(3-(5-isoprop-oxypyridin-2-yl)-1H-1,2,4-triazol-5-yl)-N3,N3-dimethyl-pyridine-2,3-diamine] | 500 to 5000 |
| CN1CC(S(=O)(=O)c2ccc(-c3nsc(Nc4ncccc4N(C)C)n3)nc2)C1 [Compound 141, N3,N3-dimethyl-N2-(3-(5-(1-methylazetidin-3-ylsulfonyl)pyridin-2-yl)-1,2,4-thiadiazol-5-yl)pyridine-2,3-diamine] | 500 to 5000 |
| CN1CCC(S(=O)(=O)c2ccc(-c3nsc(Nc4ncccc4N(C)C)n3)nc2)CC1 [Compound 142, N3,N3-dimethyl-N2-(3-(5-(1-methylpiperidin-4-ylsulfonyl)pyridin-2-yl)-1,2,4-thiadiazol-5-yl)pyridine-2,3-diamine] | 500 to 5000 |
| CC(C)c1cnc(Nc2nc(-c3ccccn3)n(C)n2)cc1C(F)(F)F [Compound 143, 5-isopropyl-N-(1-methyl-5-(pyridin-2-yl)-1H-1,2,4-triazol-3-yl)-4-(trifluoromethyl) pyridin-2-amine] | 500 to 5000 |
| CC(C)Oc1ccc(-c2nsc(Nc3nccnc3N(C)C)n2)nc1 [Compound 144, N2-(3-(5-isoprop-oxypyridin-2-yl)-1,2,4-thiadiazol-5-yl)-N3,N3-dimethyl-pyrazine-2,3-diamine] | 200 to 500 |
| CN(C)c1cccnc1Nc1nc(-c2ccc(S(=O)(=O)C3CCN(C4CC4)CC3)cn2)ns1 [Compound 145, N2-(3-(5-(1-cyclopropyl-piperidin-4-ylsulfonyl)pyridin-2-yl)-1,2,4-thiadiazol-5-yl)-N3,N3-dimethyl-pyridine-2,3-diamine] | 500 to 5000 |
| CC(C)Oc1ccnc(-c2nc(Nc3cc(C(F)(F)F)c(C(C)C)cn3)nn2C)c1 [Compound 146, N-(5-(4-isoprop-oxypyridin-2-yl)-1-methyl-1H-1,2,4-triazol-3-yl)-5-isopropyl-4-(trifluoro-methyl) pyridin-2-amine] | 500 to 5000 |
| CC(C)Oc1cc(-c2nsc(Nc3ncccc3N(C)C)n2)ncc1C(F)(F)F [Compound 147, N2-(3-(4-isoprop-oxy-5-(trifluoromethyl)pyridin-2-yl)-1,2,4-thiadiazol-5-yl)-N3,N3-dimethyl-pyridine-2,3-diamine] | 500 to 5000 |
| CC(C)Oc1cccnc1-c1nc(Nc2cc(C(F)(F)F)c(C(C)C)cn2)nn1C [Compound 148, N-(5-(3-isoprop-oxypyridin-2-yl)-1-methyl-1H-1,2,4-triazol-3-yl)-5-isopropyl-4-(trifluoromethyl) pyridin-2-amine] | 500 to 5000 |
| CC(C)COc1ccc(-c2nsc(Nc3ncccc3N(C)C)n2)nc1 [Compound 149, N2-(3-(5-isobutoxy-pyridin-2-yl)-1,2,4-thiadiazol-5-yl)-N3,N3-dimethyl-pyridine-2,3-diamine] | < 200 |
| CC(C)COc1cnc(-c2nsc(Nc3ncccc3N(C)C)n2)cn1 [Compound 150, N2-(3-(5-isobutoxy-pyrazin-2-yl)-1,2,4-thiadiazol-5-yl)-N3,N3-dimethyl-pyridine-2,3-diamine] | 500 to 5000 |
| Cc1cccnc1Nc1nc(-c2cc(OC3CC3)c(C(F)(F)F)cn2)ns1 [Compound 151, 3-(4-cyclo-propoxy-5-(trifluoromethyl)pyridin-2-yl)-N-(3-methylpyridin-2-yl)-1,2,4-thiadiazol-5-amine] | < 200 |
| Cc1cccnc1Nc1nc(-c2cc(OC(C)C)c(C(F)(F)F)cn2)ns1 [Compound 152, 3-(4-isoprop-oxy-5-(trifluoromethyl)pyridin-2-yl)-N-(3-methylpyridin-2-yl)-1,2,4-thia-diazol-5-amine] | 200 to 500 |
